For assay [1], the target named is T1, α2A adrenergic receptor (α2AAR) (Mus musculus, UniProt Q01338).
T1 sequence (Q01338 1-465): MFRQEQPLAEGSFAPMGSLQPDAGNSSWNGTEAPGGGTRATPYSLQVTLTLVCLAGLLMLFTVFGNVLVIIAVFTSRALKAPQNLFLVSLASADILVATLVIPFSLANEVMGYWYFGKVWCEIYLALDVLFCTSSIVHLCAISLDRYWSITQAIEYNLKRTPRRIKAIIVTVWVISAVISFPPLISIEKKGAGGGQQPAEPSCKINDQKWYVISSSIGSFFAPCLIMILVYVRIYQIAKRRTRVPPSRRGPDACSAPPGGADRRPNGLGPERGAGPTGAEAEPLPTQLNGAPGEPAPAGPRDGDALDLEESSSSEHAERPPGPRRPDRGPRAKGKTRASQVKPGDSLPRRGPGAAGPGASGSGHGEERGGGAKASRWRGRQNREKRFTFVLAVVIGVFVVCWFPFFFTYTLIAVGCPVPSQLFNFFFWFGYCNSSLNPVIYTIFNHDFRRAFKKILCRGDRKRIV
The experiment in a line: competition radioligand binding with 3H-RX821002.

The target of assay [2] is T1, α2A adrenergic receptor (α2AAR). The assay is described as follows: radioligand of the competition binding assay.
Assay [3] has the same target. The assay is described as follows: […]GTPγS binding, […] NE, nearly two-fold induction. It is filed as cell-based.

The structures appear in SMILES notation.

Take `CN(C)CCC[C@@]1(c2ccc(F)cc2)OCc2cc(C#N)ccc21` [ESC, escitalopram]: in assay [1], the affinity, expressed as Ki, was 79.4 µM.

Consider `COC1(C2=NCCN2)COc2ccccc2O1` (centres unmarked) [RX821002], for which, in assay [2], the “radioligand of the competition binding assay” value was “the radioligand was a ^3H-labeled form of the α2AR antagonist RX821002”.

As to `CN(C)CCCN1c2ccccc2CCc2ccccc21` [IMI, imipramine], affinity in assay [1] was put at a Ki of 5.07 µM.

As for `CN(C)CCC=C1c2ccccc2CCc2ccccc21` [AMI, amitriptyline], the Ki in assay [1] stood at 0.33 µM.

`NC[C@H](O)c1ccc(O)c(O)c1` [NE, norepinephrine]: the “[35S]GTPγS binding, 10 μM NE, nearly two-fold induction” value in assay [3] is on record as “G protein coupling response by α2AARs is seen only in response the endogenous agonist NE, which drives a nearly two-fold induction”.

The values above are taken from paper PMC4150853 (Biochemical and biophysical research communications, 2014).
